Source: patent US8987315B2, “Metalloenzyme inhibitor compounds” (Innocrin Pharmaceuticals, Inc., priority 2009, dated 2015)

Tests used:
CYP3A4 = CYP3A4 (Homo sapiens (Human), UniProt P08684); assay: Inhibition of liver cytochrome P450 enzymes (human liver microsomes), CYP3A4
CYP2C9 = CYP2C9 (Homo sapiens (Human), UniProt P11712); assay: Inhibition of liver cytochrome P450 enzymes (human liver microsomes), CYP2C9
CYP2C19 = CYP2C19 (Homo sapiens (Human), UniProt P33261); assay: Inhibition of liver cytochrome P450 enzymes (human liver microsomes), CYP2C19
CYP17 = CYP17 (Rattus norvegicus (Rat), UniProt P11715); assay: Inhibition of CYP17 (rat testicular microsomes); assay type: biochemical; conditions: pooled rat testicular microsomes
CYP17, sequence (P11715 whole entry): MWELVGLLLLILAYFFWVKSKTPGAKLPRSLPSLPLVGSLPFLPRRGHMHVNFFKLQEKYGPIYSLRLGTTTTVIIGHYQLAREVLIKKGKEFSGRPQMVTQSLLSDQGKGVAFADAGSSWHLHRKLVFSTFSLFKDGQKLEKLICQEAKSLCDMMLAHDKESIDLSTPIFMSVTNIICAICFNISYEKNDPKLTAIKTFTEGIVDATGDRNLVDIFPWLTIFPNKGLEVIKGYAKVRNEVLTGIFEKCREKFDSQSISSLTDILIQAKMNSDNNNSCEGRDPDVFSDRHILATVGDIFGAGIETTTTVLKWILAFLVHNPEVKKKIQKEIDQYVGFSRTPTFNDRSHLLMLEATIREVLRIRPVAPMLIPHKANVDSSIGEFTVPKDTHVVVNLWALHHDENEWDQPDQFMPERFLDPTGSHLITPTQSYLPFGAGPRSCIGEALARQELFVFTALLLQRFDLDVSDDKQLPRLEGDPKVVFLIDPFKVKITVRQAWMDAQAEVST

CYP2C19, sequence (P33261 whole entry): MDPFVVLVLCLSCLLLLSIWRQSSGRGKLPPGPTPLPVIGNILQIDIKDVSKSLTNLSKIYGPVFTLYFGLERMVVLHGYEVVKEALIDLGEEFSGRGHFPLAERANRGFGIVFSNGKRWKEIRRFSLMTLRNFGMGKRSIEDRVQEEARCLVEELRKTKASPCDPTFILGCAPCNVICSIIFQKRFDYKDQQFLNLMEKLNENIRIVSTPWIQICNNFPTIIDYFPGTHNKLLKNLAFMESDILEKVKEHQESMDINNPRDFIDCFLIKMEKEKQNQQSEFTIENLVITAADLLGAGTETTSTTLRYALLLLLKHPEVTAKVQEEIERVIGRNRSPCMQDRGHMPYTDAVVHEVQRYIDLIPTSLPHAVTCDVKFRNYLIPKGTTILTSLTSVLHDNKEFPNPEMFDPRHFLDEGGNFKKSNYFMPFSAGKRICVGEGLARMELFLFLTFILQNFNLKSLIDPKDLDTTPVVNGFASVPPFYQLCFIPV
CYP2C9, sequence (P11712 whole entry): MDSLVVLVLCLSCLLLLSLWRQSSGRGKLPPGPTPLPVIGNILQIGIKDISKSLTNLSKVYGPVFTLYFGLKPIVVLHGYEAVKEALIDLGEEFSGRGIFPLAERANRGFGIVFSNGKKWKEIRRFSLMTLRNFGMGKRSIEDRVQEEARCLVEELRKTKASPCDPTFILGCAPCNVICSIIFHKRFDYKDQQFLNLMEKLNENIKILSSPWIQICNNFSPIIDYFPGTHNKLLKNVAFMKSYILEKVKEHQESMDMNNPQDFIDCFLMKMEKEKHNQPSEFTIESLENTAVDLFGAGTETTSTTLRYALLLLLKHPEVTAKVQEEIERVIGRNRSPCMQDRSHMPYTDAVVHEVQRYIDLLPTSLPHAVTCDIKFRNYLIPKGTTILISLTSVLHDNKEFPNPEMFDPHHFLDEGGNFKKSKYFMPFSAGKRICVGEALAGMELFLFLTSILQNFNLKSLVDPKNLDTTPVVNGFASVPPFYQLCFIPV
CYP3A4, sequence (P08684 whole entry): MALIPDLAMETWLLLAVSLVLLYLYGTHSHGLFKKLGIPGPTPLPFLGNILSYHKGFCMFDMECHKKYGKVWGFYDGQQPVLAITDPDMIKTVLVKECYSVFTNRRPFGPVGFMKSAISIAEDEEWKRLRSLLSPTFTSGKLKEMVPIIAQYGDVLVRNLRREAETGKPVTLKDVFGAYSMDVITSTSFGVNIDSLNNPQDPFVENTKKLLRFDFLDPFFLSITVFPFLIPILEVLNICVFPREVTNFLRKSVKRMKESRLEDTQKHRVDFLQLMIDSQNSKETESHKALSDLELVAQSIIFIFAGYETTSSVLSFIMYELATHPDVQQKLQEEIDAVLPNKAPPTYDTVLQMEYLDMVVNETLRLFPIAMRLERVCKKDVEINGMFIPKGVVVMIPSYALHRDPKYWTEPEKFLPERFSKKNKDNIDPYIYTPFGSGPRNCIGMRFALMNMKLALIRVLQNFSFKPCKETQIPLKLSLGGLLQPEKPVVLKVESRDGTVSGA

| IC50 (CYP3A4) [µM] | IC50 (CYP2C9) [µM] | IC50 (CYP2C19) [µM] | IC50 (CYP17) [µM] | SMILES |
| --- | --- | --- | --- | --- |
| > 200 | 7 | 37 | 0.4 | CC(C)C(c1ccc2cc(OC(F)F)c(OC(F)F)cc2c1)n1ncnn1 (centres unmarked) [Example 1, 2-(1-(6,7-bis(difluoromethoxy)naphthalen-2-yl)-2-methylpropyl)-2H-tetrazole] |
| – | 27 | 45 | 0.46 | CC(C)C(c1ccc2cc(OCC(F)(F)F)ccc2c1)n1ncnn1 (centres unmarked) [Example 2, 2-(2-Methyl-1-(6-(2,2,2-trifluoroethoxy)naphthalen-2-yl)propyl)-2H-tetrazole] |
| > 200 | 4.8 | 30 | 0.27 | COc1cc2ccc(C(C(C)C)n3ncnn3)cc2cc1OC (centres unmarked) [Example 3, 2-(1-(6,7-Dimethoxynaphthalen-2-yl)-2-methylpropyl)-2H-tetrazole] |
| – | 15 | 35 | 0.21 | CC(C)C(c1ccc2cc(OC(F)F)ccc2c1)n1ncnn1 (centres unmarked) [Example 4, 2-(1-(6-(difluoromethoxy)naphthalen-2-yl)-2-methylpropyl)-2H-tetrazole] |
